Measured values reported in ChEMBL document CHEMBL4425119, “Design and Development of a Series of Potent and Selective Type II Inhibitors of CDK8” (ACS Med Chem Lett, 2016).

Legend:
[1] = Permeability across basolateral to apical side of MDCK cells; type: ADME, cell-based, Canis lupus familiaris; settings: dog
[2] = Permeability across apical to basolateral side of MDCK cells; type: ADME, cell-based, Canis lupus familiaris; settings: dog, read-out: permeability

SMILES | Papp B→A [1] | Papp A→B [2]
CNc1nccc(N2CC[C@H](NC(=O)Nc3ccc(CN4CCN(C)CC4)c(C(F)(F)F)c3)C2)n1 | 4.5 ×10⁻⁶ cm/s | 4.1 ×10⁻⁶ cm/s
CNc1nccc(N2CC[C@H](NC(=O)Nc3ccc(C)c(Cl)c3)C2)n1 | 7 ×10⁻⁶ cm/s | 3.9 ×10⁻⁶ cm/s
CNc1nccc(N2CC[C@H](NC(=O)Nc3ccc(CN4CCOCC4)c(C(F)(F)F)c3)C2)n1 | 12.2 ×10⁻⁶ cm/s | 12.4 ×10⁻⁶ cm/s

Other lines, results leading:

Papp B→A [1] | Papp A→B [2] | SMILES
4 ×10⁻⁶ cm/s | 3.9 ×10⁻⁶ cm/s | CNc1nccc(N2CC[C@H](NC(=O)Nc3ccc(Cl)c(C(F)(F)F)c3)C2)n1
4.2 ×10⁻⁶ cm/s | 0.3 ×10⁻⁶ cm/s | CCN1CCN(Cc2ccc(NC(=O)N[C@H]3CCN(c4ccnc(NC)n4)C3)cc2C(F)(F)F)CC1
